Drawing on paper PMC3515450, “Mechanistic and Structural Understanding of Uncompetitive Inhibitors of Caspase-6” (PLoS ONE, 2012), this text covers Kd for one molecule.

For this test, the target named is T1, caspase-6/(VEID)2R110 Michaelis complex (Homo sapiens, UniProt P55212, C163A).
T1 construct: Avi-tagged zymogen C163A-caspase-6 was processed to mature C163A-caspase-6 by the addition of active caspase-3 and caspase-6; made in house
T1 sequence (P55212 24-179 C163A): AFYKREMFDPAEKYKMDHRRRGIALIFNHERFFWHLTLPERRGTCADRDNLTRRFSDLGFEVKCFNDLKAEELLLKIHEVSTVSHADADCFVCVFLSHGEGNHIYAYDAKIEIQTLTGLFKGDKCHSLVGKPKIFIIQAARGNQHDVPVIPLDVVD
T1 sequence (P55212 194-293): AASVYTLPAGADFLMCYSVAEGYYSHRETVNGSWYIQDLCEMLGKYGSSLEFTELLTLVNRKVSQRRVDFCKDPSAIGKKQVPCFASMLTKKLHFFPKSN
As to the kind of experiment: SPR co-injection with (VEID)2R110 over apo- and C163A-caspase-6. In kind it is binding. To be noted: co-injected with (VEID)2R110, dissociation of both compound and substrate, read-out: apparent KD. How it is done:
For SPR experiments, caspase-6 was cloned to include a C-terminal avi-tag (Avidity) and expressed and purified as above, except that biotin ligase (BirA) was co-expressed during fermentation. […] Avi-tagged zymogen C163A-caspase-6 was processed to mature C163A-caspase-6 by the addition of active caspase-3 and caspase-6. Chip preparation for neutravidin-based capture was performed as previously described using either a Biacore T100 or Biacore 3000 instrument (GE Healthcare). Running buffer was 50 mM HEPES pH 7.2, 100 mM MgSO4, 30 mM NaCl, 1 mM TCEP, 0.01% Triton X-100, 1% PEG-3350, 2.5% DMSO, and the instrument was set for 20 degrees C. After capture one flow cell of apo-caspase-6 was exposed to a continuous flow of 20 µM VEID-FMK. A rise in signal could be detected for the binding/reacting of the VEID-FMK and exposure was continued until no additional rise in response was observed (∼45 minutes) indicating full saturation of all binding sites. There was no observed decrease in signal upon washing, indicating the reaction was irreversible. […] Fluorescent substrates were too limiting in solubility and quantity to be added to the running buffer, so substrates were mixed at a concentration equal to their Kmapp with 3 and injected together over the indicated surfaces. […]

As to `COc1ccc(-c2cc(C(=O)N[C@@H](CO)Cc3cccc(C#N)c3)co2)cc1OC` [Compound 3], the Kd is approximately 200 nM.
